Measured values taken from publication PMC8704315, “Lichen-Derived Compounds and Extracts as Biologically Active Substances with Anticancer and Neuroprotective Properties” (Pharmaceuticals, 2021).
Where two headings read alike, the source gives them in different places.

How the values were obtained:
[1] = DPPH radical scavenging assay; conditions: highest concentration 750.0 µg/mL for substances, 2500.0 µg/mL for extracts; ± SEM, n = 3
[2] = CUPRAC assay; conditions: concentration giving absorbance 0.5; highest 250.0 µg/mL for substances, 312.5 µg/mL for extracts; ± SEM, n = 3
[3] = molecular target: AChE (Homo sapiens, UniProt P22303); format: biochemical; conditions: sample 142.9 μg/mL in the reaction mixture; note: key: -: not active
Method: (§1) Ellman’s colorimetric method was used with modifications described previously. Tested sample (10 μL) at concentration 5 mg/mL was mixed with 20 μL of AChE (or BChE) solution (0.28 U/mL) and completed after 5 min with 35 μL of ATChI (or BTCh) (1.5 mmol/L), 175 μL of 0.3 mmol/L DTNB (containing 10 mmol/L NaCl and 2 mmol/L MgCl2) and 110 μL with Tris-HCl buffer (50 mmol/L, pH 8.0). Samples containing 10 μL of Tris-HCl buffer instead of the studied sample were run in the same way (“blank” samples). The increase in the absorbance due to the spontaneous hydrolysis of the substrate was monitored using “blank” samples containing ATCh (or BTCh) and DTNB completed to 350 μL with Tris-HCl buffer. All samples were incubated at 22 °C (30 min; incubation time was determined after optimization experiments, details not shown), and the absorbance was measured (405 nm, 96-well microplate reader, Tecan Sunrise, Grödig, Austria). The “false-positive” effect of studied compounds was measured according to Rhee et al. with minor modifications, as described previously: after mixing of the substrate with the enzyme and buffer, the “false-positive” sample was left for incubation. Then, a studied sample and DTNB were added, followed by an immediate measurement of the absorbance.
(§2) Reference cholinesterase inhibitors were used for the calculations of results (eserine, neostigmine, magniflorine, rivastigmine and donepezil). For this purpose, for each compound, 16 dilutions in pure DMSO were prepared (2.57–41.14 μg/mL). These solutions (10 μL) were tested as described above and calibration curves were produced.
(§3) Each sample was analyzed in at least eight repeats, and all solutions used in a set of analyses were prepared in the same buffer. For calculations, the background of the sample (10 μL mixed with 340 μL of Tris buffer) was measured at 405 nm and subtracted during calculations. Then, the absorbance of the test sample was subtracted from the absorbance of the “blank” sample.

[4] = PAMPA-BBB permeability; format: in vitro ADME
Description: To evaluate the effective permeability (Pe) of the salazinic acid, evernic acid, (−)-usnic acid as pure compounds and from the extracts (P. sulcata acetone extract, E. prunastri acetone extract, C. uncialis acetone extract, respectively), Parallel Artificial Membrane Permeability Assay (PAMPA) for the Blood-Brain Barrier (BBB) was used (Pion Inc., Billerica, MA, USA). The stock solutions of acetone extracts from C. uncialis, E. prunastri and P. sulcata and from (−)-usnic acid, evernic acid, salazinic acid, were prepared with DMSO (the concentrations of salazinic acid, evernic acid, and (−)-usnic acid reached were 2.5 mg/mL for pure compounds and extracts). Next, the donor solution was prepared (5 µL of stock solution/1000 µL of Prisma buffer, pH = 7.4 (Prisma HT, Pion Inc.). Subsequently, each filter membrane of the acceptor plate wells was coated with 5 μL BBB-1 lipid solution (Pion Inc.), and 180 µL of the donor solution was added to the donor wells. The acceptor well was filled with 200 µL BSB (Brain Sink Buffer, Pion Inc.). The plate was incubated for 1 h or 4 h at 37 °C. After incubation, the donor and acceptor concentrations of examined substances were determined using the HPLC. Effective permeability (Pe) of the compounds was calculated by using the following equation. (4) Pe=−ln(1−CA/Ceq)/S×(1/VD+1/VA)×t where Pe is the effective permeability coefficient (cm/s), VD = donor volume, VA = acceptor volume, Ceq = equilibrium concentration and Ceq=CD×VD+CA×VA/VD+VA , S = membrane area, and t = incubation time (in seconds).
Compounds with Pe (× 10^−6 cm/s) > 1.5 are classified as high permeation predicted, while Pe (× 10^−6 cm/s) < 1.5 are classified as low permeation predicted. Samples were analyzed in triplicate and the average is reported.

[5] = molecular target: BChE (Homo sapiens, UniProt P06276); format: biochemical; conditions: sample 142.9 μg/mL in the reaction mixture
Method: as §1, §2, §3

[6] = pH 7.4, Pe (effective permeability, PAMPA-BBB)

Chain of AChE (P22303 32-614): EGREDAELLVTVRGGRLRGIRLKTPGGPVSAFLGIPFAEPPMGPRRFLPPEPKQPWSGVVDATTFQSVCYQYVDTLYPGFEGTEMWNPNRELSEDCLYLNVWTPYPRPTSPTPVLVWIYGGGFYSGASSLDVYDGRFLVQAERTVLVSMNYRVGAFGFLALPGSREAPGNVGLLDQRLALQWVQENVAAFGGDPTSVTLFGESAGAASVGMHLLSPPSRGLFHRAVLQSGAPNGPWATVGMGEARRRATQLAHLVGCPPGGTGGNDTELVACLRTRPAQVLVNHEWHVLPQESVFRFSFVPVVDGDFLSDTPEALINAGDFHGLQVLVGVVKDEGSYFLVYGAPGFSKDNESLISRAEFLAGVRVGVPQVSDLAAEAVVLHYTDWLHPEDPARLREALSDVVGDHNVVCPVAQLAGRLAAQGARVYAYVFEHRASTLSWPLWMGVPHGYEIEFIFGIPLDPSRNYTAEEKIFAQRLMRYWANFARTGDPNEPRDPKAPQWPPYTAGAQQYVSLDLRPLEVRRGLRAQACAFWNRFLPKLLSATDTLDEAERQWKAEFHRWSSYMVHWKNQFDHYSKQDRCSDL
Chain of BChE (P06276 29-602, species assumed): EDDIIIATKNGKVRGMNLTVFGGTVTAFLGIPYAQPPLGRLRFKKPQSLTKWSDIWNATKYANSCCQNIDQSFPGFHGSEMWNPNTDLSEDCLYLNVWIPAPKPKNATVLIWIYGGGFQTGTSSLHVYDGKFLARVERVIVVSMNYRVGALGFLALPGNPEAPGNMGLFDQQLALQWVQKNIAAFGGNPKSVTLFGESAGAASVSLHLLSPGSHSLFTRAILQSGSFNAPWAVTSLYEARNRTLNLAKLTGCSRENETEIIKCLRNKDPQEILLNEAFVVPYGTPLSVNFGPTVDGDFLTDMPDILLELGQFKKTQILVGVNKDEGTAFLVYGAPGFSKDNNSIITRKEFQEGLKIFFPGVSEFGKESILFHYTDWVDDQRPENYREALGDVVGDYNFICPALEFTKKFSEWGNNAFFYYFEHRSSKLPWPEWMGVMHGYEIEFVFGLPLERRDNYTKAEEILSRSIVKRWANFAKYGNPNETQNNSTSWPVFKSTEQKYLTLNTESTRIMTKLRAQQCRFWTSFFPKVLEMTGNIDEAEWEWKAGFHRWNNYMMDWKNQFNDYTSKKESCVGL

SMILES	DPPH IC50 [1] [µg/mL]	CUPRAC IC0.5 [2] [µg/mL]	Equivalent Reference Concentration, Donepezil, AChE [3]	Equivalent Reference Concentration, Eserine, AChE [3]	Equivalent Reference Concentration, Magniflorine, AChE [3]	Equivalent Reference Concentration, Neostygmine, AChE [3]	Equivalent Reference Concentration, Rivastigmine, AChE [3]	Papp at 1 h, 12.5 µg/mL ([4]; pH 7.4, compound permeated from the acetone extract, 1 h, 37 °C, pH 7.4, ± SEM, n = 3, read-out: Pe × 10^−6 (cm/s) t = 1 h) [×10⁻⁶ cm/s]	Papp at 12.5 µg/mL ([4]; pH 7.4, from the extract or as a pure compound, bound stated, read-out: Pe (effective permeability, PAMPA-BBB)) [×10⁻⁶ cm/s]	Papp at 1 h, 12.5 µg/mL ([4]; pH 7.4, pure compound (PC), 1 h, 37 °C, pH 7.4, ± SEM, n = 3, read-out: Pe × 10^−6 (cm/s) t = 1 h) [×10⁻⁶ cm/s]	Equivalent Reference Concentration, Donepezil, BChE [5] [µg/mL]	Equivalent Reference Concentration, Eserine, BChE [5] [µg/mL]	Equivalent Reference Concentration, Magniflorine, BChE [5] [µg/mL]	Equivalent Reference Concentration, Neostygmine, BChE [5] [µg/mL]	Equivalent Reference Concentration, Rivastigmine, BChE [5] [µg/mL]	Pe × 10^−6 (cm/s) t = 1 h ([4]; 1 h, 12.5 µg/mL, pH 7.4)	Pe × 10^−6 (cm/s) t = 4 h ([4]; 4 h, 12.5 µg/mL, pH 7.4)	Papp at 12.5 µg/mL [4, 6] [×10⁻⁶ cm/s]	Papp at 1 h, 12.5 µg/mL ([4]; pH 7.4, Pe × 10^−6 (cm/s) t = 1 h) [×10⁻⁶ cm/s]	Papp at 4 h, 12.5 µg/mL ([4]; pH 7.4, Pe × 10^−6 (cm/s) t = 4 h) [×10⁻⁶ cm/s]
CC(=O)C1=C(O)C=C2Oc3c(C(C)=O)c(O)c(C)c(O)c3C2(C)C1=O (single isomer, unassigned; (-)) [(−)-Usnic acid, (−)-usnic acid]	>750.0	>250.0	-	-	-	-	-	140 ± 7.3	> 1.5	92.8 ± 6.3										
COc1cc(C)c(C(=O)Oc2cc(C)c(C(=O)O)c(O)c2)c(O)c1 [Evernic acid, evernic acid]	>750.0	>250.0	-	-	-	-	-				9.5 ± 0.0	10.9 ± 0.1	52.3 ± 0.1	16.5 ± 0.2	85.9 ± 0.1	5.0 ± 0.7 × 10^−6 cm/s	7.2 ± 0.4 × 10^−6 cm/s	> 1.5	5.2 ± 0.8	8.6 ± 0.4
Cc1cc(O)c(C=O)c2c1C(=O)Oc1c(CO)c(O)c3c(c1O2)C(O)OC3=O (stereo not shown) [Salazinic acid, salazinic acid]	>750.0	>250.0	-	-	-	-	-				7.9 ± 0.3	9.0 ± 0.1	43.2 ± 0.2	13.6 ± 0.1	70.9 ± 0.3			< 0.5		
